Consider 20 molecules from patent US7208500B2, “Thienopyridine-phenylacetamides and their derivatives useful as new anti-angiogenic agents” (Agouron Pharmaceuticals, Inc., priority 2003, dated 2007).

The target of assay [1] is T1, unphosphorylated VEGF-R2D50 (FLVK), cytosolic domain of human VEGF-R2 (Homo sapiens, UniProt P35968, DEL940-989/E990V).
T1 construct: VEGF-R2D50 contains residues 806–939 and 990–1171; made in house; host or cells: baculovirus/insect cell system
Nature of the assay: VEGF-R2 coupled spectrophotometric assay (FLVK). Type of assay: biochemical. An outline of the steps: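 Unphosphorylated VEGF-R2D50 (5–40 nM, baculovirus-expressed) was assayed with 3 mM ATP, 20 mM poly(E4Y1), 60 mM MgCl2 and 2 mM MnCl2 in HEPES pH 7.5. ADP formation was coupled via PK/LDH to NADH oxidation and followed at A340. Ki came from activity at varying compound concentrations fitted by the Morrison equation.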

In assay [2] the test system is human umbilical vein endothelial cells (HUVEC). Nature of the assay: HUVEC + VEGF proliferation assay. The format is cell-based. The note with it: VEGF-stimulated proliferation, final VEGF 6 ng/mL, 72 hours, MTT. The method, then: This assay determines the ability of a test compound to inhibit the growth factor-stimulated proliferation of human umbilical vein endothelial cells (“HUVEC”). HUVEC cells (passage 3–4, Clonetics, Corp.) were thawed into EGM2 culture medium (Clonetics Corp) in T75 flasks. Fresh EGM2 medium was added to the flasks 24 hours later. Four or five days later, cells were exposed to another culture medium (F12K medium supplemented with 10% fetal bovine serum (FBS), […] endothelial cell growth supplement (ECGS), and 0.1 mg/mL heparin). Exponentially-growing HUVEC cells were used in experiments thereafter. Ten to twelve thousand HUVEC cells were plated in 96-well dishes in […] of rich, culture medium (described above). The cells were allowed to attach for 24 hours in this medium. The medium was then removed by aspiration and […] of starvation media (F12K+1% FBS) was added to each well. After 24 hours, […] of test agent dissolved in 1% DMSO in starvation medium or this vehicle alone was added into each treatment well; the final DMSO concentration was 0.1%. One hour later, […] of VEGF (30 ng/mL) in starvation media was added to all wells except those containing untreated controls; the final VEGF concentration was 6 ng/mL. Cellular proliferation was quantified 72 hours later by MTT dye reduction, at which time cells were exposed for 4 hours MTT (Promega Corp.). Dye reduction was stopped by addition of a stop solution (Promega Corp.) and absorbance at 595 nm was determined on a 96-well spectrophotometer plate reader.

Assay [3] has as its target T2, FGF-R1 intracellular kinase domain (Homo sapiens, UniProt P11362, C488A/C584S/L457V).
T2 construct: starting from the endogenous methionine residue 456 to glutamate 766; made in house; host or cells: baculovirus vector expression system
The assay can be described thus: FGF-R spectrophotometric assay. The format is biochemical. The settings on record: 50 nM test compound; read-out: FGF-P (% inh @ 50 nM). An outline of the steps:
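Human FGF-R1 kinase domain (Met456–Glu766, L457V/C488A/C584S) expressed in baculovirus. Spectrophotometric kinase assay run as for VEGF-R2 with 50 nM FGF-R, 2 mM ATP and 15 mM poly(E4Y1).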

T2 sequence (P11362 456-766 L457V/C488A/C584S): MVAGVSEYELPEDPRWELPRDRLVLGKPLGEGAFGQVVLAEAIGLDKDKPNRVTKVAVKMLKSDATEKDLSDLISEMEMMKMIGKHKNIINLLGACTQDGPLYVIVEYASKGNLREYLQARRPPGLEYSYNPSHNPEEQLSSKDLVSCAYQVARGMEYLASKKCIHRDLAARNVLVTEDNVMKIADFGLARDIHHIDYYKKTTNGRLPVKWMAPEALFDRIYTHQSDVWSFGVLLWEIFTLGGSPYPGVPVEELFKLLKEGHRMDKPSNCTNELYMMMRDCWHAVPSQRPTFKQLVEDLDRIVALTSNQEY
T1 sequence (P35968 with tags, fused parts or gaps DEL940-989/E990V limits assumed): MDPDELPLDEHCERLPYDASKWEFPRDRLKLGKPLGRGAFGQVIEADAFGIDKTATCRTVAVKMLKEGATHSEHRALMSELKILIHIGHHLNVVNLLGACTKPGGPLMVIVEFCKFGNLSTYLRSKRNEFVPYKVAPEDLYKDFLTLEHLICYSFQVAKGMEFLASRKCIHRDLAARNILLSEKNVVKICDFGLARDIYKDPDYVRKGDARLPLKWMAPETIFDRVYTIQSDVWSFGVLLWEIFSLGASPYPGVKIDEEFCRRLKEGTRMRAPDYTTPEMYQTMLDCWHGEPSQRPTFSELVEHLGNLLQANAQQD

Usually Ki stands for the equilibrium dissociation constant of an inhibitor or competing ligand from its target. Lower therefore signals higher affinity. As usually defined, the IC50 is the concentration at which inhibition is half-maximal. Take `O=C(Cc1ccc(Oc2ccnc3cc(C(=O)N4CCC4)sc23)cc1)Nc1ccc(Br)cn1` [Example 30, 2-{4-[2-(Azetidine-1-carbonyl)-thieno[3,2-b]pyridin-7-yloxy]-phenyl}-N-(5-bromo-pyridin-2-yl)-acetamide]: in assay [1], the Ki was below 1 nM. For the same molecule, in assay [2], the IC50 is 1 to 10 nM. The inhibition at 0.05 µM in assay [3] was in the range of 0 to 5%.

`O=C(Cc1ccc(Oc2ccnc3cc(C(=O)N4CCC4)sc23)cc1)Nc1cc2ccccc2cn1` [Example 31, 2-{4-[2-(Azetidine-1-carbonyl)-thieno[3,2-b]pyridin-7-yloxy]-phenyl}-N-isoquinolin-3-yl-acetamide] came in with a Ki in assay [1] below 1 nM. For the same molecule, the IC50 in assay [2] is below 1 nM. The inhibition at 0.05 µM in assay [3] lay within 0 to 5%.

Molecule `O=C(Cc1ccc(Oc2ccnc3cc(C(=O)N4CCC4)sc23)cc1)Nc1nccc2ccccc12` [Example 32, 2-{4-[2-(Azetidine-1-carbonyl)-thieno[3,2-b]pyridin-7-yloxy]-phenyl}-N-isoquinolin-1-yl-acetamide] displayed a Ki in assay [1] of 1 to 10 nM. Further, in assay [2], the IC50 was above 10 nM. Also, in assay [3], the inhibition at 0.05 µM fell in the range of 0 to 5%.

On to `O=C(Cc1ccc(Oc2ccnc3cc(C(=O)N4CCC4)sc23)cc1)Nc1ccc2ccccc2n1` [Example 33, 2-{4-[2-(Azetidine-1-carbonyl)-thieno[3,2-b]pyridin-7-yloxy]-phenyl}-N-quinolin-2-yl-acetamide], for which the inhibitory constant (Ki) in assay [1] was below 1 nM. Further, in assay [2], the concentration for half-maximal inhibition (IC50) is above 10 nM. In assay [3], the inhibition at 0.05 µM lay within 0 to 5%.

In turn, `Cc1cc(NC(=O)Cc2ccc(Oc3ccnc4cc(C(=O)N5CCC5)sc34)cc2)no1` [Example 41, 2-{4-[2-(Azetidine-1-carbonyl)-thieno[3,2-b]pyridin-7-yloxy]-phenyl}-N-(5-methyl-isoxazol-3-yl)-acetamide] showed an inhibition constant (Ki) in assay [1] of 1 to 10 nM. In addition, the IC50 in assay [2] was 1 to 10 nM. The inhibition at 0.05 µM in assay [3] is 5 to 10%.

The molecule `Cc1cc(C)nc(NC(=O)Cc2ccc(Oc3ccnc4cc(C(=O)N5CCC5)sc34)cc2Cl)c1` [Example 49, 2-{4-[2-(Azetidine-1-carbonyl)-thieno[3,2-b]pyridin-7-yloxy]-2-chloro-phenyl}-N-(4,6-dimethyl-pyridin-2-yl)-acetamide] returned an inhibition constant (Ki) in assay [1] below 1 nM. Further, the IC50 in assay [2] is 1 to 10 nM. Besides, the inhibition at 0.05 µM in assay [3] was above 10%.

In assay [1], `O=C(Cc1ccc(Oc2ccnc3cc(C(=O)N4CCC4)sc23)cc1Cl)Nc1ccc(Cl)cn1` [Example 50, 2-{4-[2-(Azetidine-1-carbonyl)-thieno[3,2-b]pyridin-7-yloxy]-2-chloro-phenyl}-N-(5-chloro-pyridin-2-yl)-acetamide] came in with a Ki of 1 to 10 nM. In assay [2], the IC50 is above 10 nM. For the same molecule, the inhibition at 0.05 µM in assay [3] was above 10%.

In turn, `O=C(Cc1ccc(Oc2ccnc3cc(C(=O)N4CCC4)sc23)cc1Cl)Nc1ccccn1` [Example 51, 2-{4-[2-(Azetidine-1-carbonyl)-thieno[3,2-b]pyridin-7-yloxy]-2-chloro-phenyl}-N-pyridin-2-yl-acetamide] gave a Ki in assay [1] of 1 to 10 nM. Also, the IC50 in assay [2] is above 10 nM. Also, the inhibition at 0.05 µM in assay [3] lay within 0 to 5%.

`Cc1cc(NC(=O)Cc2ccc(Oc3ccnc4cc(C(=O)N5CCC5)sc34)cc2Cl)no1` [Example 52, 2-{4-[2-(Azetidine-1-carbonyl)-thieno[3,2-b]pyridin-7-yloxy]-2-chloro-phenyl}-N-(5-methyl-isoxazol-3-yl)-acetamide]: the Ki in assay [1] lay in the range of 1 to 10 nM. The IC50 in assay [2] was above 10 nM. Also, the inhibition at 0.05 µM in assay [3] is above 10%.

`Cc1cc(NC(=O)Cc2ccc(Oc3ccnc4cc(C(=O)N5CCC5)sc34)cc2Cl)on1` [Example 53, 2-{4-[2-(Azetidine-1-carbonyl)-thieno[3,2-b]pyridin-7-yloxy]-2-chloro-phenyl}-N-(3-methyl-isoxazol-5-yl)-acetamide]: the Ki in assay [1] is below 1 nM. Moreover, the IC50 in assay [2] is 1 to 10 nM. In addition, the inhibition at 0.05 µM in assay [3] is 0 to 5%.

On to `Cc1cc(NC(=O)Cc2ccc(Oc3ccnc4cc(C(=O)N5CCC5)sc34)cc2Cl)n[nH]1` [Example 55, 2-{4-[2-(Azetidine-1-carbonyl)-thieno[3,2-b]pyridin-7-yloxy]-2-chloro-phenyl}-N-(5-methyl-1H-pyrazol-3-yl)-acetamide], for which the Ki in assay [1] was below 1 nM. Besides, the IC50 in assay [2] is below 1 nM. In assay [3], the inhibition at 0.05 µM fell in the range of 0 to 5%.

For the molecule `Cn1ccnc1-c1cc2nccc(Oc3ccc(CC(=O)Nc4ccccn4)c(Cl)c3)c2s1` [Example 60, 2-{2-Chloro-4-[2-(1-methyl-1H-imidazol-2-yl)-thieno[3,2-b]pyridin-7-yloxy]-phenyl}-N-pyridin-2-yl-acetamide], the Ki in assay [1] fell in the range of 1 to 10 nM. Also, the IC50 in assay [2] is above 10 nM. For the same molecule, the inhibition at 0.05 µM in assay [3] lay in the range of 0 to 5%.

In the case of `O=C(Cc1ccc(Oc2ccnc3cc(C(=O)N4CC[C@@H](O)C4)sc23)cc1Cl)Nc1ccccn1` [Example 61, 2-{2-Chloro-4-[2-((R)-3-hydroxy-pyrrolidine-1-carbonyl)-thieno[3,2-b]pyridin-7-yloxy]-phenyl}-N-pyridin-2-yl-acetamide], in assay [1], the Ki fell in the range of 1 to 10 nM. Besides, the half-maximal inhibitory concentration (IC50) in assay [2] is above 10 nM. For the same molecule, the inhibition at 0.05 µM in assay [3] lay within 0 to 5%.

In the case of `CO[C@@H]1CCN(C(=O)c2cc3nccc(Oc4ccc(CC(=O)Nc5ccccn5)c(Cl)c4)c3s2)C1` [Example 62, 2-{2-Chloro-4-[2-((R)-3-methoxy-pyrrolidine-1-carbonyl)-thieno[3,2-b]pyridin-7-yloxy]-phenyl}-N-pyridin-2-yl-acetamide], the Ki in assay [1] was in the range of 1 to 10 nM. The IC50 in assay [2] was above 10 nM. Moreover, the inhibition at 0.05 µM in assay [3] was 0 to 5%.

On to `C=C(C(=O)NC)c1ccc(Oc2ccnc3cc(C(=O)N4CC[C@@H](O)C4)sc23)cc1` [Example 66, 2-{4-[2-((R)-3-Hydroxy-pyrrolidine-1-carbonyl)-thieno[3,2-b]pyridin-7-yloxy]-phenyl}-N-methyl-acrylamide], for which the Ki in assay [1] was above 10 nM. For the same molecule, the IC50 in assay [2] was above 10 nM. Moreover, in assay [3], the inhibition at 0.05 µM lay in the range of 0 to 5%.

On to `CNC(=O)Cc1ccc(Oc2ccnc3cc(C(=O)N4CC[C@@H](O)C4)sc23)cc1` [Example 69, 2-{4-[2-((R)-3-Hydroxy-pyrrolidine-1-carbonyl)-thieno[3,2-b]pyridin-7-yloxy]-phenyl}-N-methyl-acetamide], for which the Ki in assay [1] was above 10 nM. The half-inhibitory concentration (IC50) in assay [2] is above 10 nM. For the same molecule, the inhibition at 0.05 µM in assay [3] is 0 to 5%.

Regarding `CNC(=O)C(O)c1ccc(Oc2ccnc3cc(C(=O)N4CCC4)sc23)cc1` (stereo not drawn) [Example 74, 2-{4-[2-(Azetidine-1-carbonyl)-thieno[3,2-b]pyridin-7-yloxy]-phenyl}-2-hydroxy-N-methyl-acetamide], the Ki in assay [1] lay within 1 to 10 nM. In addition, the IC50 in assay [2] was above 10 nM. The inhibition at 0.05 µM in assay [3] is 0 to 5%.

For `CNC(=O)C(O)c1ccc(Oc2ccnc3cc(C(=O)N4CC[C@@H](O)C4)sc23)cc1` (stereo partly drawn) [Example 76, 2-Hydroxy-2-{4-[2-((R)-3-hydroxy-pyrrolidine-1-carbonyl)-thieno[3,2-b]pyridin-7-yloxy]-phenyl}-N-methyl-acetamide], in assay [1], the Ki is 1 to 10 nM. Further, the concentration for half-maximal inhibition (IC50) in assay [2] was above 10 nM. In assay [3], the inhibition at 0.05 µM lay in the range of 0 to 5%.

The molecule `CCCCNC(=O)Oc1ccc(Oc2ccnc3cc(C(=O)N4CCC4)sc23)cc1` [Example 86, butyl-carbamic acid 4-[2-(azetidine-1-carbonyl)-thieno[3,2-b]pyridin-7-yloxy]-phenyl ester] had a Ki in assay [1] of 1 to 10 nM. Moreover, the IC50 in assay [2] was below 1 nM. Moreover, the inhibition at 0.05 µM in assay [3] was in the range of 0 to 5%.

`COc1ccc2c(Oc3ccc(CC(=O)Nc4ccc(Cl)cn4)cc3)ccnc2c1` [Example 87, N-(5-Chloro-pyridin-2-yl)-2-[4-(7-methoxy-quinolin-4-yloxy)-phenyl]-acetamide] returned a Ki in assay [1] of 1 to 10 nM. Also, the IC50 in assay [2] was above 10 nM. Also, the inhibition at 0.05 µM in assay [3] was in the range of 0 to 5%.
